Source: patent US12350241B1, “Method for inhibiting proliferation of cancer cells” (IMAM MOHAMMAD IBN SAUD ISLAMIC UNIVERSITY, priority 2024, dated 2025)

How the values were obtained:
Test in all cases: growth inhibition of cancer cells (FIG. 3)
Assay type in all cases: cell-based
[1] = system: HCT116 colon carcinoma stem cells
[2] = system: A549 lung cancer stem cells
[3] = system: MDA-MB-468 cancer stem cells
PC3 cancer stem cells = system: PC3 cancer stem cells
FaDu cancer stem cells = system: FaDu cancer stem cells
HEP2 cancer cells = system: HEP2 cancer cells
HELA cancer stem cells = system: HELA cancer stem cells

Structure (SMILES): CCCCOc1ccc(Oc2ccc(C=O)cc2)cc1 [YS2, 4-(4-butoxyphenoxy)benzaldehyde]
- performance compared to doxorubicin (DOX) ([1]; HCT 116 cell line, versus commercially available doxorubicin): comparable to or outperformed DOX
- growth inhibition percentage ([1]; HCT116 colon carcinoma stem cells): about 90%
- performance compared to doxorubicin (DOX) ([2]; A549 cell line, versus commercially available doxorubicin): comparable to or outperformed DOX
- growth inhibition percentage ([2]; A549 lung cancer stem cells): about 90%
- growth inhibition percentage [3]: about 95%
- growth inhibition percentage (PC3 cancer stem cells): about 90%
- growth inhibition percentage (FaDu cancer stem cells): about 90%
- growth inhibition percentage (HEP2 cancer cells; HEP2 cancer cells): about 70%
- performance compared to doxorubicin (DOX) (HEP2 cancer cells; HEP cell line, versus commercially available doxorubicin): comparable to or outperformed DOX
- growth inhibition percentage (HELA cancer stem cells): about 80%
